Assay results published in patent publication US12714702B2, “Compositions and methods for treating or preventing pulmonary hypertension” (priority 2020, dated 2026).

Assays:
[1] = test system: Ki67, PCNA, vWF, α-SMA in SU5416/Hypoxia-induced PAH animal lung tissue; assay: SU5416/hypoxia model, immunofluorescence of lung tissue; format: in vivo, rat; details: SU5416/hypoxia rats
Protocol: (§1) Preclinical in-vivo studies for QA were earlier performed at a dose of 10 mg/kg once-a-day in a SU5416/Hypoxia-induced preventative/prophylactic PAH model. Hemodynamic parameters were collected and lung tissues were also collected and were sectioned for visualizing the impact of QA treatment on various PAH biomarkers in-vivo.
Paraffin embedded tissue sections for control animals, hypoxia induced PAH animals and QA treated animals were further subjected to immunofluorescent staining to analyze expression levels of essential molecular markers. Deparaffinization of tissues was done by exposing tissue sections to a solution of xylene for 3 minutes twice followed by washing with 200 proof absolute 99.8% ethanol and 50% ethanol. Tissues were further washed with 1×PBS twice to ensure complete deparaffinization. Similar protocol was followed hereon for immunofluorescent staining of tissue sections.

[2] = test system: pulmonary arterioles of SU5416/hypoxia-induced PAH animals; assay: SU5416/hypoxia model, muscularization, trichrome staining and medial wall thickness; format: in vivo, rat
Protocol: Adult male rats were injected with SU5416 (20 mg/kg) subcutaneously and were kept under hypoxia (10% O2) for 3 weeks. QA was administered once-a-day intraperitoneally at a dose of 10 mg/kg for 21 days starting from Day 1. […] Data represent mean±SD (n=4-5). *p<0.05.
(§2) At the end of treatment period with QA, animals were sacrificed. Chest was surgically opened to expose rat lungs. Lung tissues were collected, and blinded tissues were sectioned by Reveal Bio (San Diego, CA) at 5 μm thickness. 2 tissue sections for each animal were earmarked for Trichrome staining; and 8 more sections were provided blank for custom staining.
(§3) Tissue sections were stained using trichrome staining to visualize pulmonary arteries for all treatment and control groups. Stained lung sections were imaged using Zeiss Axio Scope A1 microscope equipped with Axiocam 506 color camera and Zeiss Zen 2.3 software. Medial wall thickness for similar sized pulmonary arteries was measured using a Motic BA210 microscope and measurements were made using Motic Image plus 2.0 software. Five pulmonary artery walls were analyzed per animal (n=2 to 5)
After 3 weeks, hemodynamic studies were performed.

[3] = test system: primary human PASMC; assay: Standard cell proliferation, CyQUANT Direct; format: cell-based; details: Day 3 and Day 5, single QA treatment at 3.1 and 6.2 μM
Protocol: Primary human PASMC were treated with QA up to 6.2 μM concentration. Cell proliferation was quantified by Cyquant Direct.
Cellular proliferation for diseased IPAH SMC II (Patient ID: L164) cells was evaluated using CyQUANT™ Direct Cell Proliferation Assay (ThermoFisher Scientific, Waltham, MA, USA). Briefly, upon 90% confluency, SMCs were harvested and seeded in TC-treated 96-well plates at a density of 1000 cells/well and were allowed to adhere overnight.
Human or bovine PASMC were treated with varying concentrations of QA (1.5-, 3.1-, and 6.2-μM). Cellular proliferation was measured at day 1, day 3 and day 5 by following the manufacturer's protocol. Briefly, a reagent mix of nucleic acid stain and background suppressor were added in PBS followed by addition of the mix in treatment wells (100 μL/well). The plates were incubated at 37° C./5% CO2 for one hour followed by evaluation of fluorescence at 485 ex/535 em. Proliferation inhibition was analyzed relative to control wells on each time point. Data was averaged from two trials with n=6 for SMC II and one trial of n=4 for SMC III.
In-vitro studies to measure anti-proliferative activity of QA against pulmonary hypertension were performed using primary human PASMC (FIG. 3), primary bovine PASMC (FIG. 4) and high altitude PASMC (HAPASMC) (FIG. 4). […]

[4] = test system: pulmonary arteries of MCT-induced PAH animals; assay: MCT model, trichrome staining of lung sections and medial wall thickness; format: in vivo, rat; details: MCT rats
From the text: as §2, §3
Additionally, lung tissue sections from the MCT-induced PAH lung tissue were examined using trichrome staining.
Medial wall thickness of pulmonary arteries was measured using the trichrome stained microscopic images.

[5] = test system: SU5416/hypoxia-induced PAH model; details: SU5416/hypoxia rats, QA 10 mg/kg i.p. once-a-day for 3 weeks from Day 1
[6] = test system: IL-6, Acta2, serpinel, Id3, BMPR2 mRNA; assay: SU5416/hypoxia model, mRNA expression by real time PCR; format: in vivo, rat; details: SU5416/hypoxia rats
[7] = test system: Ki67, PCNA, vWF, α-SMA in MCT-induced PAH animal lung tissue; assay: MCT model, immunofluorescence of lung tissue; format: in vivo, rat; details: MCT rats
Protocol: FIGS. 12A-12B show immunofluorescence imaging for MCT-induced PAH animal lung tissue slides.
as §1, with “monocrotaline (MCT) induced therapeutic” for “a SU5416/Hypoxia-induced preventative/prophylactic”
OCT compound embedded Tissue sections for control animals, MCT induced PAH animals and QA treated animals were further subjected to immunofluorescent staining to analyze expression levels of essential molecular markers. Briefly, tissue sections were washed twice with 1×PBS followed by blocking for one hour using a blocking buffer (Cell Signaling Technology, Danvers, MA, USA). Followed by blocking, tissue sections were stained with respective primary antibodies overnight; VWF #ab15419, 1:100 (abcam), α-SMA #489385, 1:500 (CST), Ki67 #9129S (CST), 1:250 and PCNA #2586S (CST), 1:100. Following day, tissue sections were washed with 1×PBS twice followed by incubation with Anti-rabbit IgG (H+L), F(ab′)2 Fragment (Alexa Fluor® 488 Conjugate) #4412S 1:250 (CST) and Anti-mouse IgG (H+L), F(ab′)2 Fragment (Alexa Fluor® 594 Conjugate) #8890S, 1:500 (CST) for one hour. Further, sections were washed with 1×PBS twice and the nuclei were stained with DAPI using Vectashield hardset antifade mounting medium with DAPI (Vector Laboratories, Burlingame, CA, USA). Tissues were imaged using Zeiss Axioplan 2 fluorescence microscope (Carl Zeiss AG, Jena, Germany).
Immunofluorescence imaging of the MCT-induced PAH animal lung tissue slides was also performed.

For `CCN(CC)CCCC(C)Nc1c2ccc(Cl)cc2nc2ccc(OC)cc12` (stereo not drawn) [QA, quinacrine], the “expression of Ki67” value [1] was “reduction in expression”, the “expression of PCNA” value [1] was “reduction in expression” and the “expression of vWF” value [1] was “did not show any reduction in expression”. The “expression of α-SMA” value [1] was “did not show any reduction in expression”, the “medial wall thickness in pulmonary arterioles” value ([2]; SU5416/hypoxia rats (FIG. 14D)) was “significant reduction” and the “vessel muscularization (less completely muscularized blood vessels than control)” value ([2]; SU5416/hypoxia rats, pulmonary arterioles) was 3.5 folds. For the same compound, the “collagen and muscular deposition in pulmonary arterioles” value ([2]; SU5416/hypoxia rats, trichrome staining) was “significant reduction”, the “reduction in medial wall thickness of pulmonary arteries” value ([2]; compared to SU5416/hypoxia-induced PAH animal tissue sections (FIG. 16)) was “about 2 fold” and the cellular hyper-proliferation [3] was “Significant reduction”. The “medial wall thickness of pulmonary arteries” value ([4]; compared to sham control animals) was “back to almost normal”, the “collagen and muscular deposition in pulmonary arterioles” value ([4]; trichrome staining) was “significant reduction” and the RVSP [5] was 45.6±7.9 mmHg. The “BMPR2 mRNA expression” value [6] was “no significant changes”, the “Acta2 gene (smooth muscle actin-alpha) expression” value ([6]; real time PCR) was “decreased” and the “IL-6 mRNA levels” value ([6]; real time PCR) was “decreased”. For the same compound, the “Id3 mRNA level” value ([6]; real time PCR) was “did not significantly change”, the “mRNA levels of serpinel” value ([6]; real time PCR) was “reduced” and the “expression of Ki67” value [7] was “reduction in expression”. The “expression of PCNA” value [7] was “reduction in expression”, the “expression of vWF” value ([7]; compared to control) was “did not show any reduction in expression” and the “expression of α-smooth muscle actin (α-SMA)” value ([7]; compared to control) was “did not show any reduction in expression”.
